Molecules are shown by their SMILES.

Format in all cases: cell-based
Assay [1] deals with platelets. The assay can be described thus: Clot lysis in the presence of platelets (t-PA/Glu-plasminogen, fluorescent fibrinogen release). The settings on record: for Clot Lysis in the Presence of Platelets (value relative to control designated as 1): 90 min 37 C, t-PA 2 U/ml, Glu-plasminogen 20 ug/ml; for fibrinolysis of clots, of that of the control: clots made and lysed in the presence of platelets. As to the method: To assess the effect of piceatannol and calpeptin on the fibrinolytic effect of t-PA and plasminogen in the presence of platelets, we designed a two step procedure by modifying the fibrinolytic assay as described by Fay et al. (Blood, 83, 351-356, 1994). First, we developed a retracted clot in the presence of fluorescence tagged fibrinogen in tubes containing platelets by the addition of thrombin. The residual fluid was taken out and platelets were added to each tube either treated with piceatannol, calpeptin and the vehicle control DMSO respectively. Glu-plasminogen, t-PA were added and the reaction was started by the addition of thrombin. After 90 minutes, the fluid from each tube was taken out and put in separate microfuge tubes followed by centrifugation. The detection of fluorescence in the supernatant was a measure of clot lysis. To form the clot, Oregon green 488 conjugated fibrinogen (fluorescent, from Molecular Probe) at 300 nM final concentration, 1 mM Ca^2+, 2 mM Mg^2+, was added to platelets at 2×10^8/ml concentration in 0.5 ml. The clot retraction was started with the addition of 0.5 unit/ml thrombin. The tubes were kept at 37° C. in dark for 1 hour until the clot retraction was complete. The residual fluid was taken out from each tube. To initiate clot lysis, platelets at 2×10^8/ml concentration were treated with either 40 ug/ml piceatannol, 200 ug/ml calpeptin or vehicle DMSO. In 0.25 ml of each, Glu-plasminogen was added to a final concentration of 20 μg/ml, and t-PA was added to a final concentration of 2 U/ml. The reaction was started with the addition of thrombin at final concentration of 0.5 U/ml. The tubes were kept at 37° C. for 90 minutes. The fluid from each tube was taken in separate microfuge tubes and centrifuged at cold at 14000 rpm for 10 minutes. The supernatants were isolated. Each supernatant was diluted to 5 times and fluorescence in each sample was measured at excitation: 495 nm and emission: 525 nm.

For assay [2], the system named is platelets. The experiment in a line: Inhibition of clot retraction (thrombin-induced, platelets with fibrinogen). As to the method:
Platelets (2×10^8 platelets/ml) were incubated with either piceatannol at a final concentration of 40 μg/ml, calpeptin at a final concentration of 200 μg/ml, or vehicle DMSO for 30 minutes in the dark. To each sample, fibrinogen was added to a final concentration of 300 nM, 1 mM Ca^2+, and 2 mM Mg^2+, 10 minutes prior to the addition of 0.5 unit/ml of thrombin. The clots were incubated for 30 minutes at 37° C. and then transferred to ice before taking photographs. Tubes: 1, vehicle control treated sample without the addition of thrombin; 2, vehicle control treated sample; 3, piceatannol treated sample; 4, calpeptin treated sample.
To determine the effect of the syk kinase inhibitor piceatannol and the calpain inhibitor calpeptin, the following experiments were carried out. Platelets (2×10^8 platelets/ml) were incubated with either piceatannol at a final concentration of 40 μg/ml, calpeptin at a final concentration of 200 μg/ml, or vehicle DMSO for 30 minutes in the dark. To each sample, fibrinogen was added to a final concentration of 300 nM, 1 mM Ca^2+, and 2 mM Mg^2+, 10 minutes prior to the addition of 0.5 unit/ml of thrombin. The clots were incubated for 30 minutes at 37° C. and then transferred to ice before taking photographs. […]

In assay [3] the test system is platelets. The assay can be described thus: Platelet aggregation (TRAP-stimulated, recorded together with NO production). The settings on record: 200 ug/ml. The method, then:
(§1) FIGS. 2A and 2B show the effect of calpeptin on NO production. Platelets at 2×10^8/ml were pre-incubated with either calpeptin at final concentration 200 ug/ml or vehicle DMSO for 30 minutes in the dark. To a final volume of 0.5 ml, fibrinogen was added to a final concentration of 1 mg/ml, 1 mM Ca^2+, and 2 mM Mg^2+, and GPRP (gly-pro-arg-pro) to a final concentration of 20 μM. The tube was placed in the NO-501 monitor to measure NO production and the platelets are stirred with a magnetic stirrer. TRAP (Thrombin Receptor Agonist Peptide) at a final concentration of 20 μM was added to start the reaction. […] The readings were taken for 300 seconds (5 minutes).
Platelets at 2×10^8/ml were pre-incubated with either calpeptin at final concentration 200 ug/ml or vehicle DMSO for 30 minutes in the dark. To a final volume of 0.5 ml, fibrinogen was added to a final concentration of 1 mg/ml, 1 mM Ca^2+, and 2 mM Mg^2+, and GPRP to a final concentration of 20 μM. The tube was placed in the NO-501 monitor to measure NO production and the platelets are stirred with a magnetic stirrer. TRAP (Thrombin Receptor Agonist Peptide) at a final concentration of 20 μM was added to start the reaction. […] The readings were taken for 300 seconds (5 minutes).

Assay [4] deals with platelets. The assay can be described thus: Nitric oxide production from platelets (NO-501 monitor, TRAP-stimulated). The following applies: 200 ug/ml, 20 uM TRAP, read for 300 seconds. The method, then:
as §1, with “[…])” for “GPRP (gly-pro-arg-pro)”, “minutes). FIGS. 3A and 3B show the effect of piceatannol on NO production. Platelets at 2×10^8/ml were pre-incubated with either piceatannol at final concentration 2.5 ug/ml or vehicle DMSO for 30 minutes in the dark. To a final volume of 0.5 ml, fibrinogen was added to a final concentration of 1 mg/ml, 1 mM Ca^2+, and 2 mM Mg^2+, and GPRP to a final concentration of 20 μM. The tube was placed in the NO-501 monitor to measure NO production and the platelets are stirred with a magnetic stirrer. TRAP (Thrombin Receptor Agonist Peptide) at a final concentration of 20 μM was added to start the reaction. […] The readings were taken for 300 seconds (5 minutes). […]” for “minutes).”

On to `Oc1cc(O)cc(/C=C/c2ccc(O)c(O)c2)c1` [piceatannol], for which, in the assay on platelets [1] (40 ug/ml), the “Clot Lysis in the Presence of Platelets (value relative to control designated as 1)” value was 6.2 and the “fibrinolysis of clots, of that of the control” value is given as “about 600%”.

For the compound `CC(C)(C)n1nc(-c2ccc(Cl)cc2)c2c(N)ncnc21` [PP2], the “effect on clot retraction” value in the assay with platelets [2] (10 uM (data not shown)) is “did not have any effect on clot retraction”.

Consider `CCCC[C@@H](C=O)NC(=O)[C@H](CC(C)C)NC(=O)OCc1ccccc1` [calpeptin], for which the “effect on platelet aggregation” value with platelets [3] was “inhibits both platelet aggregation and clot retraction”. The “effect on clot retraction” value in the assay with platelets [2] (200 ug/ml, 30 min pre-incubation, 0.5 unit/ml thrombin, 30 min 37 C) was “inhibited platelet mediated clot retraction”. Further, in the assay with platelets [1] (200 ug/ml), the “Clot Lysis in the Presence of Platelets (value relative to control designated as 1)” value was determined as 6.2 and the “fibrinolysis of clots, of that of the control” value is recorded as “about 600%”. Moreover, in the assay on platelets [4], the NO production entry is “increased and sustained NO production”.

Source of the values: patent publication US8586292B2, “Methods for identifying compounds for treatment of thrombotic condition” (priority 2002, dated 2013).
